Source: US20040063662A1, “Selenophene anti-tumor agents” (priority 1996, published 2004)

Tests used:
IGROV1 = experiment: NCI human tumor cell panel: IGROV1 (Ovarian Cancer); type: cell-based; conditions: IGROV-1, IGROV1, Ovarian Cancer
OVCAR-5 = experiment: NCI human tumor cell panel: OVCAR-5 (Ovarian Cancer); type: cell-based; conditions: OVCAR-5, Ovarian Cancer
NCI-H522 = experiment: NCI human tumor cell panel: NCI-H522 (Non-Small Cell Lung Cancer)
MALME-3M = experiment: NCI human tumor cell panel: MALME-3M (Melanoma); type: cell-based; conditions: MALME-3M, Melanoma
UO-31 = experiment: NCI human tumor cell panel: UO-31 (Renal Cancer); type: cell-based; conditions: UO-31, Renal Cancer
TK-10 = experiment: NCI human tumor cell panel: TK-10 (Renal Cancer); type: cell-based; conditions: TK-10, Renal Cancer
HOP-92 = experiment: NCI human tumor cell panel: HOP-92 (Non-Small Cell Lung Cancer)
786-0 = experiment: NCI human tumor cell panel: 786-0 (Renal Cancer); type: cell-based; conditions: 786-0, Renal Cancer
NCI-H460 = experiment: NCI human tumor cell panel: NCI-H460 (Non-Small Cell Lung Cancer); type: cell-based; conditions: NCI-H460, Non-Small Cell Lung Cancer
PC-3 = experiment: NCI human tumor cell panel: PC-3 (Prostate Cancer); type: cell-based; conditions: PC-3, Prostate Cancer
OVCAR-3 = experiment: NCI human tumor cell panel: OVCAR-3 (Ovarian Cancer); type: cell-based; conditions: OVCAR-3, Ovarian Cancer
NCI-H322M = experiment: cells; type: cell-based; conditions: Homo sapiens, Non-Small Cell Lung Cancer
MCF7/ADR-RES = experiment: NCI human tumor cell panel: MCF7/ADR-RES (Breast Cancer); type: cell-based; conditions: Breast Cancer
SK-MEL-28 = experiment: NCI human tumor cell panel: SK-MEL-28 (Melanoma); type: cell-based; conditions: SK-MEL-28, Melanoma
BT-549 = experiment: NCI human tumor cell panel: BT-549 (Breast Cancer); type: cell-based; conditions: BT-549, Breast Cancer
KM12 = experiment: NCI human tumor cell panel: KM12 (Colon Cancer); type: cell-based; conditions: KM12, Colon Cancer
OVCAR-8 = experiment: NCI human tumor cell panel: OVCAR-8 (Ovarian Cancer); type: cell-based; conditions: OVCAR-8, Ovarian Cancer
K-562 = experiment: NCI human tumor cell panel: K-562 (Leukemia); type: cell-based; conditions: K562, K-562, Leukemia
RPMI-8226 = experiment: NCI human tumor cell panel: RPMI-8226 (Leukemia); type: cell-based; conditions: RPMI-8226, Leukemia
UACC-257 = experiment: NCI human tumor cell panel: UACC-257 (Melanoma); type: cell-based; conditions: UACC-257, Melanoma
ACHN = experiment: NCI human tumor cell panel: ACHN (Renal Cancer); type: cell-based; conditions: Renal Cancer
EKVX = experiment: NCI human tumor cell panel: EKVX (Non-Small Cell Lung Cancer); type: cell-based; conditions: Non-Small Cell Lung Cancer
HS 578T = experiment: NCI human tumor cell panel: HS 578T (Breast Cancer); type: cell-based; conditions: Breast Cancer
LOX IMVI = experiment: NCI human tumor cell panel: LOX IMVI (Melanoma); type: cell-based; conditions: Melanoma
SNB-19 = experiment: NCI human tumor cell panel: SNB-19 (CNS Cancer); type: cell-based; conditions: SNB-19, CNS Cancer
A498 = experiment: NCI human tumor cell panel: A498 (Renal Cancer); type: cell-based; conditions: A498, Renal Cancer
A549/ATCC = experiment: NCI human tumor cell panel: A549/ATCC (Non-Small Cell Lung Cancer); type: cell-based; conditions: Non-Small Cell Lung Cancer
MDA-MB-435 = experiment: NCI human tumor cell panel: MDA-MB-435 (Breast Cancer); type: cell-based; conditions: MDA-MB-435, Breast Cancer
SF-295 = experiment: NCI human tumor cell panel: SF-295 (CNS Cancer); type: cell-based; conditions: SF-295, CNS Cancer
OVCAR-4 = experiment: NCI human tumor cell panel: OVCAR-4 (Ovarian Cancer); type: cell-based; conditions: OVCAR-4, Ovarian Cancer
SR = experiment: NCI human tumor cell panel: SR (Leukemia); type: cell-based; conditions: Leukemia
SF-539 = experiment: NCI human tumor cell panel: SF-539 (CNS Cancer); type: cell-based; conditions: SF-539, CNS Cancer
[1] = read-out: Log10 GI50 (converted)
[2] = read-out: Log10 TGI (converted)

## O=Cc1ccc(-c2ccc(-c3cccs3)[se]2)s1 [NSC 675346]
IGROV1; [1]
  GI50: 0.162 µM
IGROV1; [2]
  IC (TGI): 0.562 µM
OVCAR-5; [1]
  GI50: 0.0447 µM
OVCAR-5; [2]
  IC (TGI): 0.575 µM
NCI-H522; NCI-H522, read-out: Log10 GI50 (converted)
  GI50: 33.1 µM
NCI-H522; NCI-H522, read-out: Log10 TGI
  IC (TGI): > 100 µM
MALME-3M; [1]
  GI50: 34.7 µM
MALME-3M; [2]
  IC (TGI): > 100 µM
UO-31; [1]
  GI50: 35.5 µM
UO-31; [2]
  IC (TGI): > 100 µM
TK-10; [1]
  GI50: 0.0631 µM
TK-10; [2]
  IC (TGI): 0.417 µM
HOP-92; HOP-92, read-out: Log10 GI50 (converted)
  GI50: 18.6 µM
HOP-92; HOP-92, read-out: Log10 TGI
  IC (TGI): 70.8 µM
786-0; [1]
  GI50: 13.5 µM
786-0; [2]
  IC (TGI): > 100 µM
NCI-H460; [1]
  GI50: 0.251 µM
NCI-H460; [2]
  IC (TGI): > 100 µM
PC-3; [1]
  GI50: 61.7 µM
PC-3; [2]
  IC (TGI): > 100 µM
OVCAR-3; [1]
  GI50: 0.0191 µM
OVCAR-3; [2]
  IC (TGI): 21.4 µM
NCI-H322M; [1]
  GI50: 12.9 µM
NCI-H322M; [2]
  IC (TGI): > 100 µM
MCF7/ADR-RES; [1]
  GI50: 13.2 µM
MCF7/ADR-RES; [2]
  IC (TGI): 60.3 µM
SK-MEL-28; [1]
  GI50: 44.7 µM
SK-MEL-28; [2]
  IC (TGI): > 100 µM
BT-549; [1]
  GI50: ≥ 100 µM
BT-549; [2]
  IC (TGI): > 100 µM
KM12; [1]
  GI50: 32.4 µM
KM12; [2]
  IC (TGI): > 100 µM
OVCAR-8; [1]
  GI50: 4.47 µM
OVCAR-8; [2]
  IC (TGI): > 100 µM
K-562; [1]
  GI50: 2.29 µM
K-562; [2]
  IC (TGI): > 100 µM
RPMI-8226; [1]
  GI50: > 100 µM
RPMI-8226; read-out: Log10 TGI
  IC (TGI): > 100 µM
UACC-257; [1]
  GI50: 0.0263 µM
UACC-257; [2]
  IC (TGI): 0.0832 µM
ACHN; [1]
  GI50: 22.9 µM
ACHN; [2]
  IC (TGI): > 100 µM
EKVX; [1]
  GI50: 77.6 µM
EKVX; [2]
  IC (TGI): > 100 µM
HS 578T; [1]
  GI50: 23.4 µM
HS 578T; [2]
  IC (TGI): > 100 µM
LOX IMVI; [1]
  GI50: 19.5 µM
LOX IMVI; [2]
  IC (TGI): > 100 µM
SNB-19; [1]
  GI50: 21.9 µM
SNB-19; [2]
  IC (TGI): 95.5 µM
A498; [1]
  GI50: 0.145 µM
A498; [2]
  IC (TGI): 0.295 µM
A549/ATCC; [1]
  GI50: 55 µM
A549/ATCC; [2]
  IC (TGI): > 100 µM
MDA-MB-435; [1]
  GI50: 28.2 µM
MDA-MB-435; [2]
  IC (TGI): 87.1 µM
SF-295; [1]
  GI50: 21.4 µM
SF-295; [2]
  IC (TGI): 69.2 µM
OVCAR-4; [1]
  GI50: 0.12 µM
OVCAR-4; [2]
  IC (TGI): 26.9 µM
SR; [1]
  GI50: > 100 µM
SR; [2]
  IC (TGI): > 100 µM
SF-539; [1]
  GI50: 51.3 µM
SF-539; [2]
  IC (TGI): > 100 µM
